Structures can show the parent of a compound that is named as a salt.
Assays:
Adrenergic α1B = Adrenergic α1B (Rattus norvegicus (Rat), UniProt P15823); assay: Receptor binding assay panel: Adrenergic α1B
Glucocorticoid = Glucocorticoid (Homo sapiens (Human), UniProt P04150); assay: Receptor binding assay panel: Glucocorticoid
Phosphodiesterase PDE3 = assay: Receptor binding assay panel: Phosphodiesterase PDE3; format: biochemical, Human; conditions: 10 μM
Aldosterone = Aldosterone (Rattus norvegicus (Rat), UniProt P22199); assay: Receptor binding assay panel: Aldosterone
Sequence of Aldosterone (P22199 whole entry): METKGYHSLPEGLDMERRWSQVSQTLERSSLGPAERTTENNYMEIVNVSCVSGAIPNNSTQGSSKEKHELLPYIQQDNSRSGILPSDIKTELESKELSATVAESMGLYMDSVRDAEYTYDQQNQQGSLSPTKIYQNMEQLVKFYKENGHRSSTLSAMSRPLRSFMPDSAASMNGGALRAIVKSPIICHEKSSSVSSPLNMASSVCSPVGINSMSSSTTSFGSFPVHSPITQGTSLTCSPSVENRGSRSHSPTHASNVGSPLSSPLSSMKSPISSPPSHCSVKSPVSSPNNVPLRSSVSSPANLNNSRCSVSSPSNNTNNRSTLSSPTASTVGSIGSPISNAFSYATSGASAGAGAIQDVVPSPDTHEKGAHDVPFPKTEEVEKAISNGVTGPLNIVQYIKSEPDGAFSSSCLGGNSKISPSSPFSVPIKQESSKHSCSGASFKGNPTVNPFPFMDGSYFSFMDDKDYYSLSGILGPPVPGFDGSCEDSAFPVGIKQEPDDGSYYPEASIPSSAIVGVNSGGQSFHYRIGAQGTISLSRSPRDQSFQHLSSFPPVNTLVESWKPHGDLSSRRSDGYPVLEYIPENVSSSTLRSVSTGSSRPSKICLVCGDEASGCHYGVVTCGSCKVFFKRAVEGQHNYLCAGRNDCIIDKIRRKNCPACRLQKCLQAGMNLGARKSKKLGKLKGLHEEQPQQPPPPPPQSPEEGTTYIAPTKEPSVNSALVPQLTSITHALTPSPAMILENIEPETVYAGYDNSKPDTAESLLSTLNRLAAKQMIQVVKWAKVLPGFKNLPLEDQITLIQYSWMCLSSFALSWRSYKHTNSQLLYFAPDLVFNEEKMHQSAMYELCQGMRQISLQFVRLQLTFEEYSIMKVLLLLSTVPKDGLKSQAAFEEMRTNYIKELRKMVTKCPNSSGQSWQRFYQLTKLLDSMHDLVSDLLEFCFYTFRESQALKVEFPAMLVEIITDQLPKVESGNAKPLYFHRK

Adrenergic α1A = Adrenergic α1A (Rattus norvegicus (Rat), UniProt P43140); assay: Receptor binding assay panel: Adrenergic α1A
Ryanodine RyR3 = Ryanodine RyR3 (Rattus norvegicus, UniProt A0ABK0LPH6); assay: Receptor binding assay panel: Ryanodine RyR3
Sigma σ1 = Sigma σ1 (Homo sapiens (Human), UniProt Q99720); assay: Receptor binding assay panel: Sigma σ1
Sequence of Sigma σ1 (Q99720 whole entry): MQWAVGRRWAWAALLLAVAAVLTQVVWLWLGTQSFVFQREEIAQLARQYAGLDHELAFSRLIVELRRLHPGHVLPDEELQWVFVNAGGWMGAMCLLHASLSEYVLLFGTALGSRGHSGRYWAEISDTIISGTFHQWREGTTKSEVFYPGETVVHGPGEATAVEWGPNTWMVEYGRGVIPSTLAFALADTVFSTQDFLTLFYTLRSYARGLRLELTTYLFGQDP

Monoamine Oxidase MAO-B = Monoamine Oxidase MAO-B (Homo sapiens (Human), UniProt P27338); assay: Receptor binding assay panel: Monoamine Oxidase MAO-B; format: biochemical
in vivo = assay: in vivo; parameters: dose or concentration left out as unconfirmed; conditions: rat
Muscarinic M3 = Muscarinic M3 (Homo sapiens (Human), UniProt P20309); assay: Receptor binding assay panel: Muscarinic M3
Description: (§1) Radioligand binding to a panel of receptors was carried out by Eurofins on crude membrane preparations according to published procedures and by using appropriate reference standard (Eurofin, Taiwan, compound code CVie216-3 (1226840), study #TW04-0004235, quote #TW04-0004235-Q04, for Cvie Therapeutics Limited, Taiwan). […] was tested at the concentration of 10 μM.

[1] = biological target: Transporter, Norepinephrine (NET) (Homo sapiens (Human), UniProt P23975); assay: Receptor binding assay panel: Transporter, Norepinephrine (NET)
Description: as §1

Adenosine A2A = Adenosine A2A (Homo sapiens (Human), UniProt P29274); assay: Receptor binding assay panel: Adenosine A2A
Sequence of Adenosine A2A (P29274 whole entry): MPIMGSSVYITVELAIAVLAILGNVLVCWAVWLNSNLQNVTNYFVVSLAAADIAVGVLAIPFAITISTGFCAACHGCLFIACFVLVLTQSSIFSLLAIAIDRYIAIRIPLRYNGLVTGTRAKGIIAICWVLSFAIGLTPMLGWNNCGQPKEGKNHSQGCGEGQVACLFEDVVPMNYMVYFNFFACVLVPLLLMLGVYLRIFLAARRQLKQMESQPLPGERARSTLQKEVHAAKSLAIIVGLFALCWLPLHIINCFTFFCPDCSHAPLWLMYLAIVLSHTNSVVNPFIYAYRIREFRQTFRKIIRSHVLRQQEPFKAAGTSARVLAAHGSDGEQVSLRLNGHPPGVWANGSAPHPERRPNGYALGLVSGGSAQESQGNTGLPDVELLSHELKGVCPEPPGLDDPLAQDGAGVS

Adrenergic β1 = Adrenergic β1 (Homo sapiens (Human), UniProt P08588); assay: Receptor binding assay panel: Adrenergic β1
Sequence of Adrenergic β1 (P08588 whole entry): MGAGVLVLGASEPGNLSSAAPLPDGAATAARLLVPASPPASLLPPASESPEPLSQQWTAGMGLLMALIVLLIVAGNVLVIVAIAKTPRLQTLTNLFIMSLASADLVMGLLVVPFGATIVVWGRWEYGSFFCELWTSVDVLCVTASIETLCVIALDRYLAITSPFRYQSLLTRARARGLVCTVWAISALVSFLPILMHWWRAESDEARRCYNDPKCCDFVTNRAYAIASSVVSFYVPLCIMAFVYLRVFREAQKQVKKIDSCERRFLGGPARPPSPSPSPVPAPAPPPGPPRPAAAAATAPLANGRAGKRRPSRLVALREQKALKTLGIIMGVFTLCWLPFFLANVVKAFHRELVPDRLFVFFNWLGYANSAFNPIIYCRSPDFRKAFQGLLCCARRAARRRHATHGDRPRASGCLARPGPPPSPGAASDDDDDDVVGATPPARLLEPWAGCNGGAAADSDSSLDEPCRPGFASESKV

Androgen (Testosterone) = Androgen (Testosterone) (Homo sapiens (Human), UniProt P10275); assay: Receptor binding assay panel: Androgen (Testosterone)
Sequence of Androgen (Testosterone) (P10275 whole entry): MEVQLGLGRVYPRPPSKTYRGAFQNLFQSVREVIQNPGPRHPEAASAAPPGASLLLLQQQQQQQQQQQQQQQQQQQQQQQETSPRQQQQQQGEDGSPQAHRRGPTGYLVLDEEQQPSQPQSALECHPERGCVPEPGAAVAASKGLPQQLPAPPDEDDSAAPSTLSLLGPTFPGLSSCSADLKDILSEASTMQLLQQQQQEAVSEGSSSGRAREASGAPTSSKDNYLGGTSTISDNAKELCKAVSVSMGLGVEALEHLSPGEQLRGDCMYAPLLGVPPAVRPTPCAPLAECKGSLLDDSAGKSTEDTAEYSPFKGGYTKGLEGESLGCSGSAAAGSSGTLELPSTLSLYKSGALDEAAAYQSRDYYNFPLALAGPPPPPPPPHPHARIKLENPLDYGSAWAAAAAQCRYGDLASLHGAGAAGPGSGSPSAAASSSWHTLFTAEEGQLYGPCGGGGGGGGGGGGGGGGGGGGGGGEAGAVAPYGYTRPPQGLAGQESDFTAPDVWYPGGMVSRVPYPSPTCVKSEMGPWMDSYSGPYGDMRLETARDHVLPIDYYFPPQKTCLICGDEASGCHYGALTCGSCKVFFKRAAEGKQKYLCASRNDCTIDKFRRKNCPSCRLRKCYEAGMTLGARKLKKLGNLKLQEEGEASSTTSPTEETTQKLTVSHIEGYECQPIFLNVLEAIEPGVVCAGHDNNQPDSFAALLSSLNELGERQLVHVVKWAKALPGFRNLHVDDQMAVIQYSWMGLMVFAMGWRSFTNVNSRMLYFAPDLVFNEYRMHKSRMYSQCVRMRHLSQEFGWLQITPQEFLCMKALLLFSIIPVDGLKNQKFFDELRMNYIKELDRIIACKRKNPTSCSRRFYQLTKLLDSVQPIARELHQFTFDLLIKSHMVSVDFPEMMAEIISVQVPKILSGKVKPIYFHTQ
Description: as §1

Opiate μ (OP3, MOP) = Opiate μ (OP3, MOP) (Homo sapiens (Human), UniProt P35372); assay: Receptor binding assay panel: Opiate μ (OP3, MOP)
Description: as §1

STZ diabetic rats = assay: Haemodynamics in streptozotocin diabetic rats (echocardiography); format: in vivo, rat
Description: CVie214 and CVie216 were tested in a diabetic rat model. Briefly, rats were injected with streptozotocin (STZ). After 7-9 weeks from STZ injection, rats were submitted to transthoracic echocardiographic and Doppler evaluation performed under urethane anesthesia. Two-dimensionally guided M-mode recordings were used to obtain short-axis measurements of left ventricular end-diastolic diameter (LVEDD), left ventricular end-systolic diameter (LVESD), posterior (PW) and septal (SW) diastolic wall thickness according to the American Society of Echocardiography guidelines (Lang R M et al., Eur J Echocardiography 2006, 7:79-108). Fractional shortening was calculated as FS=(LVEDD−LVESD)/LVEDD. Relative wall thickness was calculated as PWTd+IVSTd/LVEDD. Mitral inflow was measured by pulsed Doppler at the tips of mitral leaflets from an apical 4-chamber view to obtain early and late filling velocities (E, A) and deceleration time of early filling velocity (DT). The deceleration slope was calculated as E/DT ratio. The mitral deceleration index was calculated as DT/E ratio. Tissue Doppler Imaging (TDI) was evaluated from the apical 4-chamber view to record septal mitral annular movements, i.e., peak myocardial systolic (s′) and early and late diastolic velocity (e′ and a′).
After baseline hemodynamic measurements were taken, the rats were administered Digoxin, CVie214, CVie216 and compared to control. Digoxin, used as reference drug, was intravenously infused at 0.11 mg/kg/min for 15 min and echocardiographic parameters measured after 1 h. CVie214-salt and CVie216-salt were intravenously infused in STZ diabetic rats at 0.2 mg/kg/min and echocardiographic parameters were measured after 15 min and 30 min.
Tables 4-6 show the haemodynamic parameters in STZ diabetic rats for Digoxin, CVie214-salt, and Cvie216-salt.

[2] = Acute toxicity in the mouse; conditions: Albino Swiss CD-1, in vivo
Description: The acute toxicity of the tested compound CVie214-salt and CVie216-salt have been determined in the mouse (Albino Swiss CD-1, body weight 30 g). Compounds have been orally administered or intravenously injected at increasing doses to identify the dose causing 50% mortality. Mortality occurred within 30 min after the administration and survival after 24 h.
As comparison, the acute toxicity for the reference compounds Digoxin and Istaroxime were also included. Digoxin refers to literature data (www.lookchem.com, Reference for Digoxin intravenous: Afifi A M, Ammar E M. Pharmacological Research Communications. Vol. 6, Pg. 417, 1974; Reference for Digoxin oral: Archives Internationales de Pharmacodynamie et de Therapie. Vol. 153, Pg. 436, 1965) (Table 3).

[3] = biological target: Peptidase, Angiotensin Converting Enzyme (Oryctolagus cuniculus (Rabbit), UniProt P12822); assay: Receptor binding assay panel: Peptidase, Angiotensin Converting Enzyme; format: biochemical
HMG-CoA Reductase = HMG-CoA Reductase (Homo sapiens (Human), UniProt P04035); assay: Receptor binding assay panel: HMG-CoA Reductase; format: biochemical
Sequence of HMG-CoA Reductase (P04035 426-888): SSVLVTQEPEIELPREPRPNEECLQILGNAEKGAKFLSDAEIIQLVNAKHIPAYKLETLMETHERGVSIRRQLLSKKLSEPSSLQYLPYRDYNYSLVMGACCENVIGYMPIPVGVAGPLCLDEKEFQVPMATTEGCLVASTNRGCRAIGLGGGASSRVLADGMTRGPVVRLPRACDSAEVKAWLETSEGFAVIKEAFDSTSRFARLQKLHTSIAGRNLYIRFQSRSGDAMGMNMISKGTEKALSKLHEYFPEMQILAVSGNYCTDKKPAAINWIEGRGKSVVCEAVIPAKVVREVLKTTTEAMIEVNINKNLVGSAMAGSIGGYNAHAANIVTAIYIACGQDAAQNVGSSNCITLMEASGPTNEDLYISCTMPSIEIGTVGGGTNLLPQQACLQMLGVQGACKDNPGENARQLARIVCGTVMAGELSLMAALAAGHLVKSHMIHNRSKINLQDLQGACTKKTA

[4] = test system: ATPase, Ca2+, skeletal muscle; assay: Receptor binding assay panel: ATPase, Ca2+, skeletal muscle; format: biochemical, pig; conditions: 10 μM
Description: as §1

[5] = after 15 min IV infusion 0.2 mg/kg/min
[6] = after 30 min IV infusion 0.2 mg/kg/min

Sequence of Adrenergic α1B (P15823 whole entry): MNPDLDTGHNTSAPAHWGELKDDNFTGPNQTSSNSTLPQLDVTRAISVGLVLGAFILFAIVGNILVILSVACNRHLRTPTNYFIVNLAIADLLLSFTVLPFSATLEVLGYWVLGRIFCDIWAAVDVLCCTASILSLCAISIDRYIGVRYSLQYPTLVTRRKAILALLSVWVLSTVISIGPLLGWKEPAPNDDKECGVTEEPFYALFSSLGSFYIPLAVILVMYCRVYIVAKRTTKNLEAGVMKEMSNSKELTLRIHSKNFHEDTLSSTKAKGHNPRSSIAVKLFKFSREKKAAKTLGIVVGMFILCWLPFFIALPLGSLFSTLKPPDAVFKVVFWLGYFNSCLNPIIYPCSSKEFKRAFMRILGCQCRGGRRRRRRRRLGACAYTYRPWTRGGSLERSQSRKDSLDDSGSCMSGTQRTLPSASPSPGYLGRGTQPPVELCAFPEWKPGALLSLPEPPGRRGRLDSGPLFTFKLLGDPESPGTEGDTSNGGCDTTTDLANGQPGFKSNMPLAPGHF
Sequence of Glucocorticoid (P04150 whole entry): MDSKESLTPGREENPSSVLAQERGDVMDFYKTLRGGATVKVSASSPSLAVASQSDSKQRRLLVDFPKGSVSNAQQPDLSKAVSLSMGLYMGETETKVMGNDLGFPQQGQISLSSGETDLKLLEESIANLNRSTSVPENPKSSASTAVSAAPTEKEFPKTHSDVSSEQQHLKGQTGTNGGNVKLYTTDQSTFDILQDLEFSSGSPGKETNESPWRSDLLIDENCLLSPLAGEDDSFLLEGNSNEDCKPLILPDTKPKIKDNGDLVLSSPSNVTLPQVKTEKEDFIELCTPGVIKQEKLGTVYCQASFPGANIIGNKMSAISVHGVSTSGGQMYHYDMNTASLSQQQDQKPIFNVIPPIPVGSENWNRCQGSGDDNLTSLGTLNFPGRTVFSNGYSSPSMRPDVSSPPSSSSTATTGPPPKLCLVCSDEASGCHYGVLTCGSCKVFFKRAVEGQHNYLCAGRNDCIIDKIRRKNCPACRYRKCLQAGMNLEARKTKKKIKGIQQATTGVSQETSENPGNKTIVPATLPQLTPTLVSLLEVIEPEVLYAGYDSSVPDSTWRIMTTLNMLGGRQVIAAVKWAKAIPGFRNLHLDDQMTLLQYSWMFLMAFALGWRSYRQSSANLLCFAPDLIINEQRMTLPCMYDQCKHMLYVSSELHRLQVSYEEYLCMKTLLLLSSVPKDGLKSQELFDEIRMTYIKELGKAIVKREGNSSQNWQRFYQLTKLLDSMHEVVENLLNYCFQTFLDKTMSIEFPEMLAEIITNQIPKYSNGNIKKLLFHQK

Structure (SMILES): C[C@]12CC[C@H](CC(=O)O)CC1C(O)CC1C2CC[C@]2(C)C(=O)CCC12 (stereo in doubt) [CVie216-salt, 2-(6beta-hydroxy-17-oxoandrostane-3-yl) acetic acid]
- inhibition at 10 µM (Adrenergic α1B): 6%
- inhibition at 10 µM (Glucocorticoid): -9%
- % inhib (Phosphodiesterase PDE3): −25%
- inhibition at 10 µM (Aldosterone): -3%
- inhibition at 10 µM (Adrenergic α1A): 5%
- inhibition at 10 µM (Ryanodine RyR3): -10%
- inhibition at 10 µM (Sigma σ1): 2%
- inhibition at 10 µM (Monoamine Oxidase MAO-B): -2%
- bioavailability (in vivo): 16.9%
- inhibition at 10 µM (Muscarinic M3): -6%
- inhibition at 10 µM [1]: -4%
- inhibition at 10 µM (Adenosine A2A): -1%
- inhibition at 10 µM (Adrenergic β1): 2%
- inhibition at 10 µM (Androgen (Testosterone)): 6%
- inhibition at 10 µM (Opiate μ (OP3, MOP)): 11%
- diastolic function (in words) (STZ diabetic rats; IV infusion): ameliorated diastolic function
- overall cardiac function, SV and CO (in words) (STZ diabetic rats; IV infusion): improvement
- A late filling velocity of mitral inflow (STZ diabetic rats; [5]): 0.66 ± 0.17 m/s
- CO cardiac output (STZ diabetic rats; [5]): 165.45 ± 30.9 mL/min
- DT deceleration time of E wave (STZ diabetic rats; [5]): 49.72 ± 12.56 ms
- DT/E mitral deceleration index (STZ diabetic rats; [5]): 56.52 ± 16.45 s2/m
- E early filling velocity of mitral inflow (STZ diabetic rats; [5]): 0.90 ± 0.13 m/s
- E/A index of LV function (STZ diabetic rats; [5]): 1.42 ± 0.28
- E/DT deceleration slope (STZ diabetic rats; [5]): 19.76 ± 8.27 m/s2
- E/e′ index of LV filling pressure (STZ diabetic rats; [5]): 39.08 ± 5.04
- FS fractional shortening (STZ diabetic rats; [5]): 56.29 ± 9.95%
- HR heart rate (STZ diabetic rats; [5]): 221 ± 50 beat/min
- SV stroke volume (STZ diabetic rats; [5]): 0.76 ± 0.12 ml/beat
- a′ TDI late relaxation velocity (STZ diabetic rats; [5]): 25.85 ± 6.98 cm/s
- e′ TDI early relaxation velocity (STZ diabetic rats; [5]): 23.1 ± 1.96 cm/s
- s′ TDI contraction velocity (STZ diabetic rats; [5]): 22.47 ± 2.45 cm/s
- A late filling velocity of mitral inflow (STZ diabetic rats; [6]): 0.68 ± 0.15 m/s
- CO cardiac output (STZ diabetic rats; [6]): 181.82 ± 23.75 mL/min
- DT deceleration time of E wave (STZ diabetic rats; [6]): 47.46 ± 10.17 ms
- DT/E mitral deceleration index (STZ diabetic rats; [6]): 54.8 ± 12.84 s2/m
- E early filling velocity of mitral inflow (STZ diabetic rats; [6]): 0.87 ± 0.09 m/s
- E/A index of LV function (STZ diabetic rats; [6]): 1.34 ± 0.27
- E/DT deceleration slope (STZ diabetic rats; [6]): 19.38 ± 5.39 m/s2
- E/e′ index of LV filling pressure (STZ diabetic rats; [6]): significantly reduced
- FS fractional shortening (STZ diabetic rats; [6]): 55.19 ± 7.32%
- HR heart rate (STZ diabetic rats; [6]): 225 ± 50 beat/min
- SV stroke volume (STZ diabetic rats; [6]): 0.83 ± 0.15 ml/beat
- a′ TDI late relaxation velocity (STZ diabetic rats; [6]): 26.66 ± 6.94 cm/s
- e′ TDI early relaxation velocity (STZ diabetic rats; [6]): 24.48 ± 2.1 cm/s
- s′ TDI contraction velocity (STZ diabetic rats; [6]): 22.68 ± 3.18 cm/s
- LD50 at 24 h ([2]; iv): > 300 mg/kg
- LD50 at 24 h ([2]; oral, os): > 700 mg/kg
- inhibition at 10 µM [3]: 7%
- inhibition at 10 µM (HMG-CoA Reductase): -4%
- % inhib [4]: −1%

Source: patent publication US12503484B2, “Androstane derivatives with activity as pure or predominantly pure stimulators of SERCA2a for the treatment of heart failure” (Seismic Pharmaceuticals, priority 2019, dated 2025)
